ChEMBL document CHEMBL3244266, “Potential antiarthritic agents. 2. Benzoylacetonitriles and beta-aminocinnamonitriles” (J Med Chem, 1979)
The source made the active and inactive calls. The calls are words filed in the database; no cut-off is given here.

Legend:
Rattus norvegicus [1] = organism: Rattus norvegicus; experiment: Antiinflammatory activity against adjuvant-induced arthritis in rat assessed as inhibition of swelling; type: functional, organism-based
Rattus norvegicus [2] = experiment: Antiinflammatory activity against adjuvant-induced arthritis rat model assessed as inhibition of swelling at 100 mg/kg, po measured on day 14 (reference value: 0%); type: functional; conditions: 336 h
Rattus norvegicus [3] = experiment: Antiinflammatory activity against adjuvant-induced arthritis rat model assessed as inhibition of swelling at 25 mg/kg, po measured on day 21 (reference value: 0%); type: functional; conditions: 504 h
Rattus norvegicus [4] = experiment: Ulcerogenicity in rat at 800 mg/kg administered daily; type: toxicity, organism-based; parameters: dose 800 mg/kg; conditions: in vivo
Rattus norvegicus [5] = experiment: Antiinflammatory activity against adjuvant-induced arthritis rat model assessed as inhibition of swelling at 50 mg/kg, po measured on day 21 (reference value: 0%); type: functional; conditions: 504 h
Rattus norvegicus [6] = experiment: Antiinflammatory activity against adjuvant-induced arthritis rat model assessed as inhibition of swelling at 50 mg/kg, po measured on day 14 (reference value: 0%); type: functional; conditions: 336 h
Rattus norvegicus [7] = experiment: Antiinflammatory activity against carrageenin-induced edema in rat; type: functional, organism-based
Rattus norvegicus [8] = experiment: Antiinflammatory activity against adjuvant-induced arthritis rat model assessed as inhibition of swelling at 100 mg/kg, po measured on day 21 (reference value: 0%); type: functional; conditions: 504 h
Cavia porcellus [9] = organism: Cavia porcellus; experiment: Antiinflammatory activity against UV-induced erythema in guinea pig; type: functional, organism-based
Rattus norvegicus [10] = experiment: Antiinflammatory activity against adjuvant-induced arthritis rat model assessed as inhibition of swelling at 25 mg/kg, po measured on day 14 (reference value: 0%); type: functional; conditions: 336 h
Rattus norvegicus [11] = experiment: Antiinflammatory activity against adjuvant-induced arthritis rat model assessed as inhibition of swelling at 1 mg/kg, po measured on day 14 (reference value: 0%); type: functional; conditions: 336 h
Rattus norvegicus [12] = experiment: Antiinflammatory activity against adjuvant-induced arthritis rat model assessed as inhibition of swelling at 2 mg/kg, po measured on day 14 (reference value: 0%); type: functional; conditions: 336 h
Rattus norvegicus [13] = experiment: Antiinflammatory activity against adjuvant-induced arthritis rat model assessed as inhibition of swelling at 2 mg/kg, po measured on day 21 (reference value: 0%); type: functional; conditions: 504 h
Rattus norvegicus [14] = experiment: Antiinflammatory activity against adjuvant-induced arthritis rat model assessed as inhibition of swelling at 0.5 mg/kg, po measured on day 21 (reference value: 0%); type: functional; conditions: 504 h
Rattus norvegicus [15] = experiment: Antiinflammatory activity against adjuvant-induced arthritis rat model assessed as inhibition of swelling at 1 mg/kg, po measured on day 21 (reference value: 0%); type: functional; conditions: 504 h
Rattus norvegicus [16] = experiment: Antiinflammatory activity against adjuvant-induced arthritis rat model assessed as inhibition of swelling at 0.5 mg/kg, po measured on day 14 (reference value: 0%); type: functional; conditions: 336 h
Rattus norvegicus [17] = experiment: Antiinflammatory activity against adjuvant-induced arthritis rat model assessed as inhibition of swelling at 200 mg/kg, po measured on day 21 (reference value: 0%); type: functional; conditions: 504 h
Rattus norvegicus [18] = experiment: Antiinflammatory activity against adjuvant-induced arthritis rat model assessed as inhibition of swelling at 200 mg/kg, po measured on day 14 (reference value: 0%); type: functional; conditions: 336 h
Cavia porcellus [19] = organism: Cavia porcellus; experiment: Inhibition of prostaglandin synthetase in guinea pig lung assessed as net production of prostaglandin-like activity; conditions: tested as the 14C-labelled form
[20] = Drug recovery in rat urine assessed as total radioactivity at 50 mg/kg, po measured after 24 hrs by TLC/HPLC analysis; type: ADME, organism-based; parameters: dose 50 mg/kg, route oral; conditions: in vivo
Plasma = experiment: Drug recovery in rat plasma assessed as total radioactivity at 50 mg/kg, po measured over 7-day period by TLC/HPLC analysis; type: ADME, organism-based; parameters: dose 50 mg/kg, route oral; conditions: in vivo
[21] = tested as the 14C-labelled form

SMILES	inhibition in vivo at 100 mg/kg (Rattus norvegicus [2]) [%]	inhibition in vivo at 25 mg/kg (Rattus norvegicus [3]) [%]	Activity (Rattus norvegicus [4])	inhibition in vivo at 50 mg/kg (Rattus norvegicus [5]) [%]	inhibition in vivo at 50 mg/kg (Rattus norvegicus [6]) [%]	Activity (Rattus norvegicus [7])	inhibition in vivo at 100 mg/kg (Rattus norvegicus [8]) [%]	Activity (Cavia porcellus [9])	inhibition in vivo at 25 mg/kg (Rattus norvegicus [10]) [%]	also measured
N#C/C=C(\N)c1cccc(F)c1	–	–	–	–	–	–	–	–	–	Activity (Rattus norvegicus [1]): Active
N#C/C=C(\N)c1ccc(F)cc1	53	14	Non-toxic	25	43	inactive	29	inactive	26	–
N#CCC(=O)c1ccsc1	46	31	Non-toxic	40	55	inactive	29	inactive	52	–
COc1ccc2c(c1)c(CC(=O)O)c(C)n2C(=O)c1ccc(Cl)cc1 [INDOMETHACIN]	–	–	–	–	–	–	–	–	–	inhibition in vivo at 1 mg/kg (Rattus norvegicus [11]): 46%; inhibition in vivo at 2 mg/kg (Rattus norvegicus [12]): 68%; inhibition in vivo at 2 mg/kg (Rattus norvegicus [13]): 24%; inhibition in vivo at 0.5 mg/kg (Rattus norvegicus [14]): 20%; inhibition in vivo at 1 mg/kg (Rattus norvegicus [15]): 19%; inhibition in vivo at 0.5 mg/kg (Rattus norvegicus [16]): 40%
O=C(O)CC(=O)c1ccccc1	–	–	–	–	–	–	–	–	–	Activity (Rattus norvegicus [1]; [21]): inactive; Activity (Rattus norvegicus [7]; [21]): inactive
N#C/C=C(\N)c1cccs1	49	10	Non-toxic	23	44	inactive	27	inactive	35	–
N#CCC(O)c1ccccc1 (centres undefined)	–	–	–	–	–	–	–	–	–	Activity (Rattus norvegicus [1]; [21]): inactive; Activity (Rattus norvegicus [7]; [21]): inactive
N#CCC(=O)c1cccs1	58	–	Non-toxic	18	46	inactive	42	inactive	–	inhibition in vivo at 200 mg/kg (Rattus norvegicus [17]): 29%; inhibition in vivo at 200 mg/kg (Rattus norvegicus [18]): 72%
N#CCC(=O)c1cccc(F)c1	–	–	–	–	–	–	–	–	–	Activity (Rattus norvegicus [1]): Active
O=C(O)CNC(=O)c1ccccc1	–	–	–	–	–	–	–	–	–	Activity (Rattus norvegicus [1]; [21]): inactive; Activity (Rattus norvegicus [7]; [21]): inactive
O=C(O)C(O)C(O)c1ccccc1 (centres undefined)	–	–	–	–	–	–	–	–	–	Activity (Rattus norvegicus [1]; [21]): inactive; Activity (Rattus norvegicus [7]; [21]): inactive
N#CCC(=O)c1ccccc1	63	33	Non-toxic	42	51	inactive	48	inactive	54	inhibition (Cavia porcellus [19]): Active
N#C/C=C(\N)c1ccsc1	58	20	Non-toxic	27	48	inactive	33	inactive	37	–
N#CC[14C](=O)c1ccccc1	–	–	–	–	–	–	–	–	–	Drug recovery [20]: 81.7%; Drug recovery (Plasma): 93.3%
N#C/C=C(\N)c1ccccc1	65	25	–	52	58	Active	54	Active	39	–
N#CCC(=O)c1ccccc1F	63	33	Non-toxic	42	51	inactive	48	inactive	54	–
N#CCC(=O)c1ccc(F)cc1	46	17	Non-toxic	37	56	inactive	32	inactive	33	–
